Measurements as given in patent publication US6777426B2, “Imidazole and imidazoline derivatives and uses thereof” (Synaptic Pharmaceutical Corporation, priority 1997, dated 2004).

Legend:
[1] = target: T1, human α2c adrenergic receptor (Homo sapiens, UniProt P18825); test: α2 agonist activity: inhibition of forskolin-stimulated cAMP synthesis, α2c cells; type: cell-based; settings: inhibition of forskolin-stimulated cAMP, cloned human α2c; for EC50: read-out: α2c pEC50 (converted)
T1 construct: The entire coding region of α2c (1383 bp), including 2 bp of 5′ UT and 400 bp of 3′ UT; expressed in transfected cells; host or cells: LM(tk−) cells (L-α2c, ATCC CRL-11181), vector pCEXV-3
T1 sequence (P18825 1-462): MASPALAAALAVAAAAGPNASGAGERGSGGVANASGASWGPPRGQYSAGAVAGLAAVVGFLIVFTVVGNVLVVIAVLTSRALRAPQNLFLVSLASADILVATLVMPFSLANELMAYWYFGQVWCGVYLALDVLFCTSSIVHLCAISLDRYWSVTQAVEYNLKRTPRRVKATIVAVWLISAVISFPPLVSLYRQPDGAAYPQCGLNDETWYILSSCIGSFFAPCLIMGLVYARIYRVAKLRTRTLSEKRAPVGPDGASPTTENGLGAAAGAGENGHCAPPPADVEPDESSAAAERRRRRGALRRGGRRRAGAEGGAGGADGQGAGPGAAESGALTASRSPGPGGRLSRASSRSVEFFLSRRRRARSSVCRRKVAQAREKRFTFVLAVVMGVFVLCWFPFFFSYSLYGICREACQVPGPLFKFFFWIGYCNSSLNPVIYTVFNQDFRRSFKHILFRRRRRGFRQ
Protocol: (§1) Binding and functional assays were performed using stably transfected cells expressing human α adrenergic receptors. Equilibrium competition binding assays were performed with membrane preparations from cultured LM(tk−) cells stably transfected with the cloned human adrenoceptor subtypes except for a21, which was expressed In Y-1 cells, using [^3H]prazosin for α1 receptors and [^3H]rauwolscine for […].
(§2) These cell lines were prepared by transfecting cloned cDNA or cloned genomic DNA or constructs containing both genomic DNA and cDNA encoding the human a adrenergic receptors as described below.
(§3) The agonist activity (expressed as pEC50) was measured as a function of the ability to inhibit the forskolin-stimulated synthesis of cyclic adenosine monophosphate (cAMP). The stably transfected cells were incubated in Ham's F10 with 5 mM theophylline, 10 mM HEPES, 17 mM pargyline, and/or appropriate concentrations of forskolin for 20 min. at 37° C. in 5% CO2. The tested compounds were then added to a final concentration of 0.001 nM to 1 mM and incubated for an additional 15 min. at 37° C. in 5% CO2. The medium was aspirated and the reaction was stopped by the addition of 100 mM HCl. […] The plates were stored at 4° C. for 15 min. and assayed to determine the linear concentration of cAMP. The appropriate dilution was interpolated from the standard curve of cold cAMP. The assessment of cAMP formation was determined by radioimmunoassay (cAMP radioimmunoassay kit; Advanced magnetics, Cambridge, Mass.). Radioactivity was quantified using a Packard COBRA Auto Gamma counter equipped with data reduction software.

[2] = target: T1, human α2c adrenergic receptor; test: Equilibrium competition binding, [3H]rauwolscine, cloned human α2c; settings: cloned human α2c, membrane preparations, [3H]rauwolscine; read-out: α2c pKi (converted)
Protocol: as §1, §2
The insert housing this coding region was a 1.8 kb Ncol/EcoR1 human spleen genomic fragment which was end-blunted by either T4 polymerase or Klenow fragment of DNA polymerase. Stable cell lines were selected as described above.
(§4) The stable cell lines described above were scraped from culture flasks into 5 mL of 5 mM Tris-HCl, […], pH 7.5, and lysed by sonication. The cell lysates were centrifuged at 1,000 rpm for 5 min. at 4° C., and the supernatant was centrifuged at 30,000×g for 20 min. at 4° C. The pellet was suspended in 50 mM Tris-HCl, 1 mM MgCl2, and 0.1% ascorbic acid at pH 7.5. Binding of the α2 antagonist [^3H]rauwolscine (0.5 nM) or the α1 antagonist [^3H]prazosin (0.5 nM) to membrane preparations of LM(tk−) cells was done in a final volume of 0.25 mL and incubated at 37° C. for 20 min. Nonspecific binding was determined in the presence of […]. The reaction was stopped by filtration through GF/B filters using a cell harvester.

[3] = target: T2, human α2a adrenergic receptor (Homo sapiens, UniProt P08913); test: Equilibrium competition binding, [3H]rauwolscine, cloned human α2a; settings: cloned human α2a, membrane preparations, [3H]rauwolscine; read-out: α2a pKi (converted)
T2 construct: expressed in transfected cells; host or cells: LM(tk−) cells (L-α2A, ATCC CRL-11180), vector pCEXV-3
T2 sequence (P08913 1-465): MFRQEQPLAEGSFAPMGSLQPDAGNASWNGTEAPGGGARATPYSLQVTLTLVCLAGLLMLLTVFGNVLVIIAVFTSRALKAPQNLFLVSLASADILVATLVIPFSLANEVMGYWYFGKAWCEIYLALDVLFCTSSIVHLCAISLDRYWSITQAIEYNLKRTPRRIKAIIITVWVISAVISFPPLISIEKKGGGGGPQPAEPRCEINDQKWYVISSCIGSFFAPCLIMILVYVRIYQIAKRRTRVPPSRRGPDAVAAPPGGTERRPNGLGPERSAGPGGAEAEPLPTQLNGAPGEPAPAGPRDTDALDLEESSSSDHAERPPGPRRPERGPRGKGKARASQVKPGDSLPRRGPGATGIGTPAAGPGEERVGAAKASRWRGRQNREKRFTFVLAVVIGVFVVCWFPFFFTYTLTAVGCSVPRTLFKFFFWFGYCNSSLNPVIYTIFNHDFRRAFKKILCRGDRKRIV
Protocol: as §1, §2
The insert housing this coding region was a 2.5 kb Kpnl/HindIII human placenta genomic fragment which was end-blunted by either T4 polymerase or Klenow fragment of DNA polymerase. Stable cell lines were obtained by to-transfection with the plasmid pGCcos3neo (plasmid containing the α2a receptor gene) and the plasmid pGCcos3neo (plasmid containing the aminoglycoside transferase gene) into LM(tk−), CHO, and NIH3T3 cells, using calcium phosphate technique. The cells were grown in a controlled environment (37° C., 5% CO2) as monolayers in Dulbecco's modified Eagle's Medium (GIBCO, Grand Island, N.Y.) containing 25 mM glucose and supplemented with 10% bovine calf serum, 100 units/mL penicillin g, and […] streptomycin sulfate.
as §4

[4] = target: T3, human α2b adrenergic receptor (Homo sapiens, UniProt P18089); test: Equilibrium competition binding, [3H]rauwolscine, cloned human α2b; settings: cloned human α2b, membrane preparations, [3H]rauwolscine; read-out: α2b pKi (converted)
T3 construct: expressed in transfected cells; host or cells: stably transfected cells, vector pcEXV-3; deposited line L-NGC-α2B (ATCC CRL-10275)
T3 sequence (P18089 1-450): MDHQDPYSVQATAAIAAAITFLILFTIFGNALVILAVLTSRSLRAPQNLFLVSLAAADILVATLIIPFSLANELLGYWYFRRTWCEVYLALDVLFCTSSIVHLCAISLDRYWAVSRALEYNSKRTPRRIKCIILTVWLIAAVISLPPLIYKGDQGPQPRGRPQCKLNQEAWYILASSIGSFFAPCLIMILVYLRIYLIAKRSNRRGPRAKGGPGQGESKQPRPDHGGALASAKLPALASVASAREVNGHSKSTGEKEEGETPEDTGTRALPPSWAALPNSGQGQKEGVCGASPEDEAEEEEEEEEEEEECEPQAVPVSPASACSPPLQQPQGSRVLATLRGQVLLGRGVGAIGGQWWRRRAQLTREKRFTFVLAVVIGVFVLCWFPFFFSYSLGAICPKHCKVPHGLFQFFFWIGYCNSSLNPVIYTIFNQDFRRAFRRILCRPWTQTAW
Protocol: as §1, §2
Stable cell lines were selected as described above.
as §4

[5] = target: T2, human α2a adrenergic receptor; test: α2 agonist activity: inhibition of forskolin-stimulated cAMP synthesis, α2a cells; type: cell-based; settings: for α2a IA (Intrinsic Activity): inhibition of forskolin-stimulated cAMP, cloned human α2a
Protocol: as §1, §2, §3

[6] = target: T3, human α2b adrenergic receptor; test: α2 agonist activity: inhibition of forskolin-stimulated cAMP synthesis, α2b cells; type: cell-based; settings: inhibition of forskolin-stimulated cAMP, cloned human α2b; for EC50: read-out: α2b pEC50 (converted)
Protocol: as §1, §2, §3

Row | Compound | α2c IA (Intrinsic Activity) [1] | EC50 [1] | Ki [2] | melting point | Ki [3] | Ki [4] | EC50 [5] | α2a IA (Intrinsic Activity) [5] | α2b IA (Intrinsic Activity) [6] | EC50 [6]
1 | c1cc2c(cc1NC1=NCCN1)CCC2 [Example 1, 2-(5-Indanylamino)-2-imidazoline] | (1.00) | 11.5 nM | 13.8 nM | 41 to 42 °C | 1.15 nM | 2.88 nM | 14.8 nM | (0.48) | (0.53) | 36.3 nM
2 | Cc1nc2c(c(C)c1NC1=NCCN1)CCC2 [Example 30, 2-(5,6-Cyclopenteno-2,4-dimethyl-pyrid-3-yl)amino-2-imidazoline] | (1.00) | 6.31 nM | 309 nM | – | 17.8 nM | 36.3 nM | 2.95 nM | (1.00) | (0.43) | 148 nM
